For data set [1], the system named is HBV. The data set is described as follows: Anti-HBV activity in HepG2.2.15 cells (HBV DNA in culture medium by qPCR). The format is cell-based. The settings on record: Hepatitis B virus, HepG2.2.15, 144 h, HepG2.2.15 cells, 6 days treatment, HBV DNA in culture medium quantified by real-time PCR; read-out: EC50. On the procedure:
Example 2: Anti-Viral Assay in HepG2.2.15 Cells
(§1) HepG2.2.15 (the HepG2.2.15 cell line can be produced by transfection of the HepG2 cell line as described in Sells, Chen, and Acs 1987 (Proc. Natl. Acad. Sci. USA 84: 1005-1009), and the HepG2 cell line is available from ATCC® under number HIB-8065™)
(§2) HepG2.2.15 cells were plated into 96-well plate in 2% FBS culture medium at the density of 40,000 cells/well and 5,000 cells/well for HBV inhibitory activity and cytotoxicity determination, respectively. After incubation at 37° C., 5% CO2 overnight, cells were treated with medium containing compounds for 6 days with medium and compounds refreshed after 3 days of treatment. Each compound was tested in a 1:3 serial dilutions at 8 different concentrations in triplicate. The highest concentration of the compounds was 10 uM or 1 uM for anti-HBV activity assay and 100 uM for cytotoxicity determination.
The change of HBV DNA level induced by the compounds was assessed by quantitative real-time polymerase chain reaction (qPCR). Briefly, the HBV DNA in the culture medium was extracted using QIAamp 96 DNA Blood Kit according to the manual and then quantified by real-time PCR assay using the primers and probe in the table 2 below.
(§3) 2) DATA Analysis EC50 and CC50 values are calculated by the GRAPTIPAD PRISM software.
(In qPCR the cycle at which signal appears reflects the starting amount.)

Data set [2] in a line: Cytotoxicity determination in HepG2.2.15 cells (CCK-8 cell viability). The format is cell-based. The settings on record: human, 6 days treatment, CCK-8 assay, highest concentration 100 uM. On the procedure: as §1, §2
Cell viability was determined by CCK-8 assay. After 6 days of compounds treatment, 20 μl CCK-8 reagents were added to each well of cytotoxicity assay plates. Cell plates were incubated at 37° C., 5% CO2 for 2.5 h. The absorbance at 450 nm wavelength and the absorbance at 630 nm wavelength as reference was measured.
as §3
(Tetrazolium dyes change colour on reduction, which living cells bring about.)

What is called EC50 is the concentration giving half of the maximal effect. As usually defined, the CC50 is the concentration that lowers cell viability or growth by half. Low values mean harm at low concentration, high ones better tolerance by the cells.

In the case of `CCOC(=O)C1=C(CN2CC(F)(F)[C@@H]3CN(CC(C)(C)C(=O)O)C[C@@H]32)NC(c2nccs2)=N[C@H]1c1cccc(F)c1C` (single isomer, unassigned) [Compound 12B], in data set [1], the EC50 came to 8.2 nM. Besides, in data set [2], the CC50 at 6 days is 86100 nM.
Regarding `CCOC(=O)C1=C(CN2CC(F)(F)[C@@H]3CN(CC(C)(C)C(=O)O)C(=O)[C@@H]32)NC(c2nccs2)=N[C@H]1c1cccc(F)c1C` (single isomer, unassigned) [Compound 13B], in data set [1], the 50% effective concentration (EC50) is 3.5 nM. For the same compound, half-maximal cytotoxicity in data set [2] (CC50 at 6 days) was put at 38600 nM.
The corresponding values for `CCOC(=O)C1=C(CN2CC(F)(F)[C@H]3CN(C(C)C(=O)O)C[C@H]32)NC(c2nccs2)=N[C@H]1c1cccc(F)c1C` (single isomer, unassigned) [Compound 14B] are 102 nM and 67900 nM.
The corresponding values for `CCOC(=O)C1=C(CN2CC(F)(F)[C@H]3CN([C@H](C)C(=O)O)C[C@H]32)NC(c2nccs2)=N[C@H]1c1cccc(F)c1C` (single isomer, unassigned) [Compound 14E] are 62.3 nM and 85300 nM.
The corresponding values for `CCOC(=O)C1=C(CN2CC(F)(F)[C@H]3CN([C@@H](C)C(=O)O)C[C@H]32)NC(c2nccs2)=N[C@H]1c1cccc(F)c1C` (single isomer, unassigned) [Compound 14F] are 125 nM and greater than 100000 nM.
Consider `CCOC(=O)C1=C(CN2CC(F)(F)[C@H]3CN(CC(C)C(=O)O)C[C@H]32)NC(c2nccs2)=N[C@H]1c1cccc(F)c1C` (single isomer, unassigned) [Compound 15B], for which, in data set [1], the EC50 is 27.2 nM. Further, in data set [2], the CC50 at 6 days is greater than 100000 nM.
The corresponding values for `CCOC(=O)C1=C(CN2CC(F)(F)[C@H]3CN(C[C@@H](C)C(=O)O)C[C@H]32)NC(c2nccs2)=N[C@H]1c1cccc(F)c1C` (single isomer, unassigned) [Compound 15E] are 22.5 nM and 41700 nM.
The matching figures for `CCOC(=O)C1=C(CN2CC(F)(F)[C@H]3CN(C[C@H](C)C(=O)O)C[C@H]32)NC(c2nccs2)=N[C@H]1c1cccc(F)c1C` (single isomer, unassigned) [Compound 15F]: 16.1 nM and 39000 nM.
Consider `CCOC(=O)C1=C(CN2CC(F)(F)[C@@H]3CN(CC4(C(=O)O)CC4)C[C@@H]32)NC(c2nccs2)=N[C@H]1c1cccc(F)c1C` (single isomer, unassigned) [Compound 16B], for which the 50% effective concentration (EC50) in data set [1] was determined as 68.6 nM. Also, the CC50 at 6 days in data set [2] was greater than 100000 nM.
The corresponding values for `CCOC(=O)C1=C(CN2CC(F)(F)[C@@H]3CN(CCC(C)(C)C(=O)O)C[C@@H]32)NC(c2nccs2)=N[C@H]1c1cccc(F)c1C` (single isomer, unassigned) [Compound 17B] are 123 nM and 72800 nM.
The matching figures for `CCOC(=O)C1=C(CN2CC(F)(F)[C@H]3CN([C@H]4C[C@H](C(=O)O)C4)C[C@H]32)NC(c2nccs2)=N[C@H]1c1cccc(F)c1C` (single isomer, unassigned) [Compound 18A]: 61.1 nM and 66300 nM.
The matching figures for `CCOC(=O)C1=C(CN2CC(F)(F)[C@H]3CN([C@H]4C[C@@H](C(=O)O)C4)C[C@H]32)NC(c2nccs2)=N[C@H]1c1cccc(F)c1C` (single isomer, unassigned) [Compound 18B]: 73.7 nM and 64200 nM.
As to `COC(=O)C1=C(CN2CC(F)(F)C3CN(CC(C)(C)C(=O)O)CC32)NC(c2nccs2)=N[C@H]1c1cccc(F)c1C` (single isomer, unassigned) [Compound 19B, 3-((cis)-3,3-difluoro-1-((6-(3-fluoro-2-methylphenyl)-5-(methoxycarbonyl)-2-(thiazol-2-yl)-3,6-dihydropyrimidin-4-yl)methyl)hexahydropyrrolo[3,4-b]pyrrol-5(1H)-yl)-2,2-dimethylpropanoic acid], the half-maximal effective concentration (EC50) in data set [1] is 49.3 nM. The same compound came in with a CC50 at 6 days in data set [2] of 24200 nM.
In the case of `COC(=O)C1=C(CN2CC(F)(F)[C@@H]3CN(CC(C)(C)C(=O)O)C[C@@H]32)NC(c2nccs2)=N[C@H]1c1ccc(F)cc1Cl` (single isomer, unassigned) [Compound 20B, 3-((cis)-1-((6-(2-chloro-4-fluorophenyl)-5-(methoxycarbonyl)-2-(thiazol-2-yl)-3,6-dihydropyrimidin-4-yl)methyl)-3,3-difluorohexahydropyrrolo[3,4-b]pyrrol-5(1H)-yl)-2,2-dimethylpropanoic acid], the concentration giving a half-maximal response (EC50) in data set [1] was 39.5 nM. Also, in data set [2], the CC50 at 6 days is greater than 100000 nM.
The corresponding values for `COC(=O)C1=C(CN2CC(F)(F)[C@@H]3CN(CC(C)(C)C(=O)O)C[C@@H]32)NC(c2nccs2)=N[C@H]1c1ccc(F)c(F)c1Cl` (single isomer, unassigned) [Compound 21B, 3-((cis)-1-((6-(2-chloro-3,4-difluorophenyl)-5-(methoxycarbonyl)-2-(thiazol-2-yl)-3,6-dihydropyrimidin-4-yl)methyl)-3,3-difluorohexahydropyrrolo[3,4-b]pyrrol-5(1H)-yl)-2,2-dimethylpropanoic acid] are 22.7 nM and 97300 nM.
The matching figures for `CCOC(=O)C1=C(CN2CC(F)(F)[C@@H]3CN(CC(C)(C)C(=O)O)C[C@@H]32)NC(c2nccs2)=N[C@H]1c1cccc(F)c1Cl` (single isomer, unassigned) [Compound 22B, 3-((cis)-1-((6-(2-chloro-3-fluorophenyl)-5-(ethoxycarbonyl)-2-(thiazol-2-yl)-3,6-dihydropyrimidin-4-yl)methyl)-3,3-difluorohexahydropyrrolo[3,4-b]pyrrol-5(1H)-yl)-2,2-dimethylpropanoic acid]: 8.9 nM and 70400 nM.
The matching figures for `CCOC(=O)C1=C(CN2CC(F)(F)[C@@H]3CN(C(=O)CC(C)(C)C(=O)O)C[C@@H]32)NC(c2nccs2)=N[C@H]1c1cccc(F)c1C` (single isomer, unassigned) [Compound 23B]: 24 nM and 30200 nM.
Regarding `CCOC(=O)C1=C(CN2CC[C@]3(F)CN(CC(C)(C)C(=O)O)C(=O)[C@H]23)NC(c2nccs2)=N[C@H]1c1cccc(F)c1C` (single isomer, unassigned) [Compound 24A], the EC50 in data set [1] was 221 nM. In addition, it took 48500 nM to reach half-maximal cytotoxicity in data set [2] (CC50 at 6 days).
The corresponding values for `CCOC(=O)C1=C(CN2CC[C@H]3C(=O)N(CC(C)(C)C(=O)O)C[C@H]32)NC(c2nccs2)=N[C@H]1c1cccc(F)c1C` (single isomer, unassigned) [Compound 25A] are 32.4 nM and 74500 nM.
`CCOC(=O)C1=C(CN2CC(F)(F)[C@H]3[C@@H]2CCN3[C@H](C)C(=O)O)NC(c2nccs2)=N[C@H]1c1cccc(F)c1C` (single isomer, unassigned) [Compound 26E]: in data set [1], the EC50 stood at 5.2 nM. The compound further came in with a CC50 at 6 days in data set [2] of 28100 nM.
The matching figures for `CCOC(=O)C1=C(CN2CC(F)(F)[C@H]3[C@@H]2CCN3[C@@H](C)C(=O)O)NC(c2nccs2)=N[C@H]1c1cccc(F)c1C` (single isomer, unassigned) [Compound 26F]: 14.8 nM and 41700 nM.
The corresponding values for `COC(=O)C1=C(CN2CC(F)(F)[C@@H]3C(=O)N(CC(C)(C)C(=O)O)C[C@@H]32)NC(c2nccs2)=N[C@H]1c1ccc(F)cc1Cl` (single isomer, unassigned) [Compound 28, 3-((cis)-1-((6-(2-chloro-4-fluorophenyl)-5-(methoxycarbonyl)-2-(thiazol-2-yl)-3,6-dihydropyrimidin-4-yl)methyl)-3,3-difluoro-4-oxohexahydropyrrolo[3,4-b]pyrrol-5(1H)-yl)-2,2-dimethylpropanoic acid] are 28.2 nM and greater than 100000 nM.
The corresponding values for `COC(=O)C1=C(CN2CC(F)(F)[C@@H]3C(=O)N(CC(C)(C)C(=O)O)C[C@@H]32)NC(c2nccs2)=N[C@H]1c1cccc(F)c1Cl` (single isomer, unassigned) [Compound 29, 3-((cis)-1-((6-(2-chloro-3-fluorophenyl)-5-(methoxycarbonyl)-2-(thiazol-2-yl)-3,6-dihydropyrimidin-4-yl)methyl)-3,3-difluoro-4-oxohexahydropyrrolo[3,4-b]pyrrol-5(1H)-yl)-2,2-dimethylpropanoic acid] are 13.5 nM and greater than 100000 nM.
Turning to `CCOC(=O)C1=C(CN2CC(F)(F)[C@H]3[C@@H]2CCN3C(=O)[C@H]2CC[C@H](C(=O)O)CC2)NC(c2nccs2)=N[C@H]1c1cccc(F)c1C` (single isomer, unassigned) [Compound 30], in data set [1], the EC50 was determined as 81.3 nM. The same compound had a half-maximal cytotoxic concentration (CC50) at 6 days in data set [2] of 28000 nM.
As for `CCOC(=O)C1=C(CN2CC(F)(F)[C@@H]3CN(C(=O)NS(C)(=O)=O)C[C@@H]32)NC(c2nccs2)=N[C@H]1c1cccc(F)c1C` (single isomer, unassigned) [Compound 31], in data set [1], the EC50 was 106 nM. In data set [2], this compound had a CC50 at 6 days of 85800 nM.

The values are drawn from patent publication US20230083012A1, “DIHYDROPYRIMIDINE DERIVATIVES AND USES THEREOF IN THE TREATMENT OF HBV INFECTION OR OF HBV-INDUCED DISEASES” (priority 2019, published 2023).
